According to US20090104145A1, “Mixtures of Anthranilamide Invertebrate Pest Control Agents” (priority 2004, published 2009):

Key:
Assay in all cases: whole plant or invertebrate
Format in all cases: in vivo
[1] = test system: diamondback moth (Plutella xylostella); conditions: for mortality at 2 ppm: rate 2 ppm; for mortality at 0.08 ppm: rate 0.08 ppm; for mortality at 0.4 ppm: rate 0.4 ppm; for mortality at 10 ppm: rate 10 ppm
Method: (§1) The pest control protection afforded by the mixtures or compositions is not limited, however, to these species. The analysis of synergism or antagonism between the mixtures or compositions was determined using Colby's equation. The average % mortality data for the test compounds alone were inserted into the Colby's equation. If the observed average % mortality was higher than “p”, the expected % mortality, the mixture or composition had synergistic effects. If the observed average % mortality was equal to or lower than the expected mortality, the mixture or composition either had no synergistic effect or an antagonistic effect. In these tests, Compound 1 is the compound of Formula 1.
For evaluating control of diamondback moth (Plutella xylostella), cabbage (var. Stonehead) plants were grown in Metromix potting soil in 10-cm pots in aluminum trays to test size (28 days, 3-4 full leaves) the plants were sprayed to the point of runoff using the turntable sprayer as described in Test I. Test compounds were formulated and sprayed on test plants as described for Test I. After drying for 2 hours, the treated leaves were excised and infested with one cabbage looper per cell and covered. The test units were placed on trays and put in a growth chamber at 25° C. and 60% relative humidity for 4 days.

[2] = test system: western flower thrip (Frankliniella occidentalis Pergande)
Method: as §1
(§2) Test compounds were formulated using a solution containing 10% acetone, 90% water and 300 ppm X-77® Spreader Lo-Foam Formula non-ionic surfactant containing alkylarylpolyoxyethylene, free fatty acids, glycols and isopropanol (Loveland Industries, Inc.) to provide the desired concentration in ppm. Formulated test solutions were then applied in 1 mL volumes through a SUJ2 atomizer nozzle with ⅛ JJ custom body (Spraying Systems Co.) positioned 1.27 cm (0.5 inches) above the top of each test unit.
For evaluating control of the western flower thrip (Frankliniella occidentalis Pergande) through contact and/or systemic means, each test unit consisted of a small open container with a 5- to 7-day-old bean (var. Soleil) plant inside.
Test solutions were formulated and sprayed with 3 replications as described for Test A. After spraying, the test units were allowed to dry for 1 hour, 22 to 27 adult thrips were added to each unit and then a black, screened cap was placed on top. The test units were held for 7 days at 25° C. and 45-55% relative humidity.

[3] = test system: silverleaf whitefly (Bemisia argentifolii Bellows and Perring); conditions: for % mortality (obs): Table 2B, compound alone
Method: as §1
For evaluating control of silverleaf whitefly (Bemisia argentifolii Bellows and Perring) through contact and/or systemic means, each test unit consisted of a small open container with a 12- to 14-day-old cotton plant inside. This was pre-infested by placing test units into cages infested with adult whiteflies so that oviposition on the cotton leaves could occur. The adults were removed from the plants with an air-blast nozzle, and the test units were capped. The test units were then stored 2 to 3 days before spraying.
as §2
The results for all experimental compositions in this test were replicated three times. After spraying of the formulated test composition, each test unit was allowed to dry for 1 hour and the cap removed. The test units were held for 13 days in a growth chamber at 28° C. and 50-70% relative humidity.

[4] = test system: cotton melon aphid (Aphis gossypii Glover)
Method: as §1, §2
(§3) For evaluating control of cotton melon aphid (Aphis gossypii Glover) through contact and/or systemic means, each test unit consisted of a small open container with a 6- to 7-day-old cotton plant inside. This was pre-infested by placing on a leaf of the test plant 30 to 40 aphids on a piece of leaf excised from a culture plant (cut-leaf method). The larvae moved onto the test plant as the leaf piece desiccated. After pre-infestation, the soil of the test unit was covered with a layer of sand.
(§4) Test compounds were formulated and sprayed as described for Test A. The applications were replicated three times. After spraying of the formulated test compounds, each test unit was allowed to dry for 1 hour and then a black, screened cap was placed on top. The test units were held for 6 days in a growth chamber at 19-21° C. and 50-70% relative humidity.

[5] = test system: green peach aphid (Myzus persicae Sulzer)
Method: as §1, §2
as §3, with “green peach” for “cotton melon”, “(Myzus persicae Sulzer)” for “(Aphis gossypii Glover)”, “12-” for “6-”, “15-day-old radish” for “7-day-old cotton”
as §4, with “described in” for “described for”, “Test A,” for “Test A. The applications were”, “test compound,” for “test compounds,”

[6] = test system: potato leafhopper (Empoasca fabae Harris); conditions: Compound 1 0 ppm
Method: as §1, §2
For evaluating control of potato leafhopper (Empoasca fabae Harris) through contact and/or systemic means, each test unit consisted of a small open container with a 5- to 6-day-old Longio bean plant (primary leaves emerged) inside. White sand was added to the top of the soil, and one of the primary leaves was excised prior to application. Test compounds were formulated and sprayed with 3 replications as described for Test A. After spraying, the test units were allowed to dry for 1 hour before they were infested with 5 potato leafhoppers (18- to 21-day-old adults). A black, screened cap was placed on the top of each container. The test units were held for 6 days in a growth chamber at 19-21° C. and 50-70% relative humidity.

[7] = Plutella xylostella, in Brassica oleracea, rate 1 ppm, read-out: % mortality (obs)
[8] = Plutella xylostella, in Brassica oleracea, read-out: % mortality (obs)
[9] = Plutella xylostella, in Brassica oleracea, rate 100 ppm, read-out: % mortality (obs)
[10] = Plutella xylostella, in Brassica oleracea, rate 1000 ppm, read-out: % mortality (obs)

Compound: CS/C(C)=N\OC(=O)N(C)SN(C)C(=O)O/N=C(\C)SC [Thiodicarb, thiodicarb]
- % mortality (obs) ([1]; rate 100 ppm): 90%
- % mortality (obs) ([1]; rate 1000 ppm): 90%
- % mortality (obs) ([1]; rate 3000 ppm): 90%

Compound: thiamethoxam
- % mortality ([1]; rate 30): 90%
- % mortality ([1]; rate 40): 100%
- % mortality ([1]; rate 50): 100%
- % Mortality (observed) ([2]; Thiamethoxam 1 ppm alone): 33%
- % Mortality (observed) ([2]; Thiamethoxam 5.5 ppm alone): 43%
- % Mortality (observed) ([2]; Thiamethoxam 29 ppm alone): 43%
- % Mortality (observed) ([3]; Thiamethoxam 15 ppm alone): 53%
- % Mortality (observed) ([3]; Thiamethoxam 26 ppm alone): 65%
- % Mortality (observed) ([4]; Thiamethoxam 0.5 ppm): 22%
- % Mortality (observed) ([4]; Thiamethoxam 0.8 ppm): 83%
- % Mortality (observed) ([4]; Thiamethoxam 1 ppm): 91%
- % Mortality (observed) ([5]; 0.2 ppm): 23%
- % Mortality (observed) ([5]; 0.3 ppm): 23%
- % Mortality (observed) ([5]; 0.5 ppm): 93%

Compound: CNC(=O)O/N=C(\SC)C(=O)N(C)C [Oxamyl, oxamyl]
- % mortality (obs) ([1]; rate 1 ppm): 60%

Compound: O=C(NC(=O)c1c(F)cccc1F)Nc1cc(Cl)c(OC(F)(F)C(F)F)c(Cl)c1 [Hexaflumuron, hexaflumuron]
- mortality at 0.5 ppm ([1]; Plutella xylostella, in Brassica oleracea, rate 0.5 ppm, read-out: % mortality (obs)): 70%
- mortality at 1 ppm [1, 7]: 30%
- mortality at 2 ppm [1, 8]: 70%
- mortality at 10 ppm ([2]; Frankliniella occidentalis, rate 10 ppm, read-out: % mortality (obs)): 20%
- mortality at 3000 ppm ([2]; Frankliniella occidentalis, rate 3000 ppm, read-out: % mortality (obs)): 60%

Compound: Cc1ccc(/N=C/N(C)/C=N/c2ccc(C)cc2C)c(C)c1 [Amitraz, amitraz]
- % mortality ([1]; rate 10): 70%
- % mortality ([1]; rate 100): 20%
- % mortality ([1]; rate 1000): 50%

Compound: Nc1nc(N)nc(NC2CC2)n1 [Cyromazine, cyromazine]
- mortality at 20 ppm ([1]; Plutella xylostella, in Brassica oleracea, rate 20 ppm, read-out: % mortality (obs)): 60%
- mortality at 40 ppm ([1]; Plutella xylostella, in Brassica oleracea, rate 40 ppm, read-out: % mortality (obs)): 90%
- mortality at 60 ppm ([1]; Plutella xylostella, in Brassica oleracea, rate 60 ppm, read-out: % mortality (obs)): 80%

Compound: O=C(NC(=O)c1c(F)cccc1F)Nc1cc(Cl)c(OC(F)(F)C(F)C(F)(F)F)cc1Cl (stereo not drawn) [Lufenuron, lufenuron]
- mortality at 0.08 ppm [1, 8]: 80%
- mortality at 0.4 ppm [1, 8]: 80%
- mortality at 2 ppm [1, 8]: 90%

Compound: pyridaben
- % mortality ([1]; rate 100): 100%
- % mortality ([1]; rate 150): 80%
- % mortality ([1]; rate 200): 100%

Compound: CNC(=O)ON=C(C)SC [Methomyl, methomyl]
- % mortality ([1]; rate 30): 80%
- % mortality ([1]; rate 40): 90%
- % mortality ([1]; rate 50): 80%

Compound: COc1cccc(C(=O)NN(C(=O)c2cc(C)cc(C)c2)C(C)(C)C)c1C [Methoxyfenozide, methoxyfenozide]
- mortality at 0.08 ppm [1, 8]: 90%
- mortality at 0.4 ppm [1, 8]: 90%
- mortality at 2 ppm [1, 8]: 90%
- mortality at 5 ppm ([4]; Aphis gossypii, rate 5 ppm, read-out: % mortality (obs)): 22%
- mortality at 50 ppm ([4]; Aphis gossypii, rate 50 ppm, read-out: % mortality (obs)): 20%
- mortality at 500 ppm ([4]; Aphis gossypii, rate 500 ppm, read-out: % mortality (obs)): 26%

Compound: O=[N+]([O-])NC1=NCCN1Cc1ccc(Cl)nc1 [Imidacloprid, imidacloprid]
- % Mortality (observed) ([6]; Imidacloprid 0.4 ppm): 20%
- % Mortality (observed) ([6]; Imidacloprid 1.4 ppm): 0%
- % Mortality (observed) ([6]; Imidacloprid 4.6 ppm): 20%
- mortality at 0.3 ppm ([5]; Myzus persicae, in Raphanus sativus, read-out: % Mortality (observed)): 50%

Compound: COC(=O)N(C(=O)N1CO[C@@]2(C(=O)OC)Cc3cc(Cl)ccc3C2=N1)c1ccc(OC(F)(F)F)cc1 [Indoxacarb, indoxacarb]
- % mortality (obs) ([1]; rate 0.02 ppm): 80%
- % mortality (obs) ([1]; rate 0.05 ppm): 40%

Compound: CCOC(=O)NCCOc1ccc(Oc2ccccc2)cc1 [Fenoxycarb, fenoxycarb]
- mortality at 10 ppm [1, 8]: 90%
- mortality at 100 ppm [1, 9]: 90%
- mortality at 1000 ppm [1, 10]: 90%

Compound: CCN(Cc1ccc(Cl)nc1)/C(=C/[N+](=O)[O-])NC [Nitenpyram, nitenpyram]
- % mortality (obs) ([1]; rate 30 ppm): 90%
- % mortality (obs) ([1]; rate 150 ppm): 90%

Compound: CC1(C)[C@H](C(=O)O[C@H](C#N)c2cccc(Oc3ccccc3)c2)[C@@H]1C=C(Br)Br [Deltamethrin, deltamethrin]
- mortality at 0.1 ppm ([1]; Plutella xylostella, in Brassica oleracea, rate 0.1 ppm, read-out: % mortality (obs)): 90%
- mortality at 0.3 ppm ([1]; Plutella xylostella, in Brassica oleracea, rate 0.3 ppm, read-out: % mortality (obs)): 90%
- mortality at 1 ppm [1, 7]: 90%

Compound: dieldrin
- % mortality ([1]; rate 2): 90%
- % mortality ([1]; rate 2.5): 100%
- % mortality ([1]; rate 3): 100%

Compound: CC(C)N1C(=O)N(c2ccccc2)CS/C1=N\C(C)(C)C [Buprofezin, buprofezin]
- mortality at 10 ppm [1, 8]: 30%
- mortality at 1000 ppm [1, 10]: 60%

Compound: spinosad
- % mortality ([1]; rate 10): 100%
- % mortality ([1]; rate 100): 90%
- % mortality ([1]; rate 1000): 100%

Compound: CCc1ccc(C(=O)NN(C(=O)c2cc(C)cc(C)c2)C(C)(C)C)cc1 [Tebufenozide, tebufenozide]
- mortality at 150 ppm ([1]; Plutella xylostella, in Brassica oleracea, rate 150 ppm, read-out: % mortality (obs)): 90%
- mortality at 200 ppm ([1]; Plutella xylostella, in Brassica oleracea, rate 200 ppm, read-out: % mortality (obs)): 90%
- mortality at 300 ppm ([1]; Plutella xylostella, in Brassica oleracea, rate 300 ppm, read-out: % mortality (obs)): 90%

Compound: CC1(C)CNC(=NN=C(/C=C/c2ccc(C(F)(F)F)cc2)/C=C/c2ccc(C(F)(F)F)cc2)NC1 [Hydramethylnon, hydramethylnon]
- mortality at 0.01 ppm ([1]; Plutella xylostella, in Brassica oleracea, rate 0.01 ppm, read-out: % mortality (obs)): 70%
- mortality at 0.05 ppm ([1]; Plutella xylostella, in Brassica oleracea, rate 0.05 ppm, read-out: % mortality (obs)): 50%
- mortality at 0.2 ppm ([1]; Plutella xylostella, in Brassica oleracea, rate 0.2 ppm, read-out: % mortality (obs)): 60%

Compound: CNC(=O)c1cc(C#N)cc(C)c1NC(=O)c1cc(Br)nn1-c1ncccc1Cl [Compund 1]
- % mortality (obs) ([3]; rate 7 ppm): 30%
- % mortality (obs) ([3]; rate 9 ppm): 53%
- % mortality (obs) ([3]; rate 12 ppm): 71%

Compound: N#CCNC(=O)c1cnccc1C(F)(F)F [Flonicamid, flonicamid]
- % mortality ([1]; rate 1): 0%
- % mortality ([1]; rate 15): 60%
- % mortality ([1]; rate 1000): 30%

Compound: CCOP(=S)(OCC)Oc1nc(Cl)c(Cl)cc1Cl [Chlorpyrifos, chlorpyrifos]
- mortality at 10 ppm [1, 8]: 80%
- mortality at 100 ppm [1, 9]: 40%
- mortality at 1000 ppm [1, 10]: 50%
